Data from patent publication US20260364124A1, “ANTI-C. DIFFICILE SMALL MOLECULE METABOLITES FROM DIET AND GUT MICROBIOME” (The Children's Medical Center Corporation, priority 2023, published 2026).
Entries after “also recorded” stand apart in the source; their conditions may differ.

System: C. difficile M7404
Assay: In vitro polydatin bioactivation and C. difficile antagonism by conditioned (spent) media of B. uniformis WT
Assay type: cell-based, Clostridioides difficile
Conditions: polydatin 500 μM, 1/2-diluted, C. difficile M7404 growth 12 h (FIG. 5A)
Description: FIGS. 5A and 5B show microbiome-mediated polyphenol aglycone liberation. […] Step 2: Spent media was filter-sterilized. Step 3: C. difficile was grown in spent media from either vehicle or polydatin (top). […]
The experimental media consisted of a modified YCFA media (mYCFA; casitone (2.5 g/L), yeast extract (0.625 g/L), cysteine (0.5 g/L), magnesium sulfate heptahydrate (f.c. 365 μM), calcium chloride dihydrate (f.c. 610 μM), sodium bicarbonate (4 g/L), dipotassium phosphate (0.45 g/L), monopotassium phosphate (0.45 g/L), sodium chloride (0.9 g/L), sodium acetate (2.71 g/L), Hemin (50 mg/L), Vitamin K1 (0.25 mg/L), ferrous sulfate (4 μg/mL), and ATCC vitamin mix (1% v/v)) supplemented with glucose (15 mM, Sigma) plus ½-diluted B. uniformis WT or AgshD conditioned media from growth with or without polydatin. C. difficile growth was monitored by measuring the optical density at 600 nm (OD600) of each culture in a 384 well plate with an Epoch2 spectrophotometer (BioTek Instruments) for 12 hours.

OC[C@H]1O[C@@H](Oc2cc(O)cc(/C=C/c3ccc(O)cc3)c2)[C@H](O)[C@@H](O)[C@@H]1O [polydatin]
anti-C. difficile activity of conditioned media from B. uniformis WT grown with polydatin: inhibited the growth of Clostridioides difficile in vitro; also recorded: generated potent anti-C.difficile activity
